Data taken from patent publication US4440757A, “Pharmaceutical composition comprising derivative of aminobenzoic acid for regulating prostaglandin” (priority 1978, dated 1984).

Experiments:
[1] = system: Ehrlich cancer; experiment: Cancer proliferation and PGE in the cancer cells (Ehrlich); type: in vivo, C57BL/6 mouse; conditions: 100 mg/kg i.p. every other day, 14th day; for Weight of cancer: control 1.30; for Content of PGE in the cancer: control 1.77
Procedure: Following the same method as in Example 12, the anti-cancer action against transplanted Ehrlich cancer in C57BL/6 mouse, and the amount of PGE in the cancer cells in proliferation in the living body of the mouse were examined in the cases where each one compound of the present invention, Specimens Nos. 1, 2, 3, 4, 5, 6, 8, 9, 10 and 11 was intraperitoneally administered every other day from the next day of the transplantation in total 6 times at a dosage of 100 mg/kg.
The results of determination of the weight of cancer extirpated from the sacrificed mouse on 14th day of the transplantation of the cancer cells, 1×10^6 in number per animal, and content of PGE of the extirpated cancer are shown in the following Table 13: […]

[2] = system: male SHR rats; experiment: Effect of aspirin on the hypotensive action; type: in vivo, rat (SHR); conditions: 100 mg/kg p.o., after 6 hours; for Alteration of blood pressure, Case (b): with aspirin 200 mg/kg before and after; for Alteration of blood pressure, Case (a): without aspirin
Procedure: It is known that PGs are produced from arachidonic acid and the conversion of arachidonic acid into PGG2 is mediated by cyclooxygenase. Also it is known that aspirin inactivates cyclooxygenase, and that the […] of PGs is completely stopped by the administration of aspirin to a mammal.
Accordingly, the following experiment was carried out: To groups of male SHR rats of 30 to 40 weeks after birth, (a) one of the present substance was forcibly administered orally at 100 mg/kg as a solution in distilled water or an aqueous suspension in 2% solution of carboxymethylcellulose or (b) aspirin was forcibly administered orally, before and after one hour of the administration of the present substance, at 200 mg/kg. The blood pressure of the thus treated rats was measured with the time passage.

[3] = system: thoracic aorta, PGI2; experiment: PGI2 production in arterial tissue of diabetic rats; type: in vivo, male Sprague-Dowley rats; conditions: 100 mg/kg p.o., diabetic rat; not administered 0.07, normal 0.26
Procedure: (§1) Groups of male Sprague-Dowley rats of body weight of about 200 g are used for the present experiments. Some groups of the rats were intravenously administered with streptozotocin at 80 mg/kg one to three months in advance of the beginning of the present experiment to be in a state of diabetes mellitus. Those rats of the same strain, the same sex and the same age without being administered with streptozotocin were used as control.
(§2) The present substances (Specimens Nos. 4, 7 and 8) were respectively administered to the groups of rats suffering from the artificial diabetes mellitus forcibly by oral route at a rate of 100 mg/kg as an aqueous solution in distilled water.
In the next place, the amount of prostaglandin I2 produced in the arterial tissue was measured as follows:
Thoracic aorta of the rat was rapidly extirpated, washed with Krebs' buffer solution at a temperature of 4° C. and cut into thin rings of 1 to 2 mg in weight. Then, into 200 microliters of Krebs' buffer solution, 60 mg of the thus cut aorta were added and the mixture was incubated for 3 min at 22° C.
The amount of prostaglandin I2 (PGI2) produced by the cut aorta was determined on the supernatant liquid (1 to 10 microliters) of the above-mentioned incubated culture in the same manner as in Example 2 using the suppressing action of platelet aggregation as an index, however, using adenosine diphosphate as the agglutinating agent. After preparing a standard calibration curve using an authentic specimen of PGI2, the content of PGI2 of the above-mentioned supernatant liquid was obtained from the standard curve in ng/mg of wet weight of the arterial tissue.

[4] = system: streptozotocin diabetic rats; experiment: Blood sugar of diabetic rats; type: in vivo, male Sprague-Dowley rats; conditions: 100 mg/kg p.o., 6 hours, diabetic rat; not administered 412.1, normal 76.7
Procedure: as §1, §2
After 6 hours of the administration of the present substance, blood specimen was collected from the rat under anesthesia by ether in an amount of 0.5 ml/animal, and the content of blood sugar was measured by the enzymatic method.

[5] = system: male Sprague-Dowley rats; experiment: Leakage of dye-staff after skin stimulation with histamine and PGE1; type: in vivo; conditions: 1000 mg/kg p.o.; with histamine + PGE1
Procedure: To the three groups of male Sprague-Dowley rats of the total six groups, the respective present substances (Specimens Nos. 4, 7 and 8) were forcibly administered by oral route at the rate of 1000 mg/kg, the other three groups being administered nothing at this time. After 60 min of the administration, a mixture of PGE1 (2.5×10^-11 mol/animal) and histamine (2×10^-8 mol/animal) was intracutaneously injected under light […] into the shaved skin of an abdominal part of four groups of the rats including three groups administered with the present substance.

[6] = system: female spontaneously hypertensive rats (SHR); experiment: Diuretic effect and 6-keto PGF1α in blood; type: in vivo, rat (SHR); conditions: for Level of 6-keto PGF1α in blood: control 3.0
Procedure: Groups of female spontaneously hypertensive rats (SHR) kept in fasting for 12 hours and abstained from water for 2 hours were treated by forced oral administration of the present substance (each of Specimens Nos. 4, 7 and 8) at respective rates of 1 and 5 g/kg dissolved in 8 ml (per 200 g b.w.) of an aqueous physiological saline solution, control group being administered only with the aqueous physiological saline solution in an amount of 8 ml/200 g b.w.
The amount of excreted urine of the rats was measured every hour from one hour after the administration for 6 times, and the percentages of the volume of urine to the volume of the aqueous physiological saline solution containing the present substance formerly administered (8 ml per 200 g b.w.) are shown in Table 19.
In the next place, after 6 hours of the administration, all animals were sacrificed to collect the whole blood for obtaining its plasma fraction. The ether-extract of the plasma fraction was separated by thin-layer chromatography and after converting the thus separated substances into methyloximesilyl derivatives, the variation of 6 keto PGF1α was examined by gas-chromatography-mass-spectrography.

[7] = 1 g/kg p.o., 2 hours, control 9
[8] = 1 g/kg p.o., 3 hours, control 22
[9] = 1 g/kg p.o., 4 hours, control 26
[10] = 1 g/kg p.o., 5 hours, control 28
[11] = 1 g/kg p.o., 6 hours, control 30
[12] = 5 g/kg p.o., 2 hours, control 9
[13] = 5 g/kg p.o., 3 hours, control 22
[14] = 5 g/kg p.o., 4 hours, control 26
[15] = 5 g/kg p.o., 5 hours, control 28
[16] = 5 g/kg p.o., 6 hours, control 30

SMILES	Weight of cancer [1]	Content of PGE in the cancer [1]	Alteration of blood pressure, Case (b) [2]	Alteration of blood pressure, Case (a) [2]	PGI2 [3]	Blood sugar [4]	Absorbance at 620 nm (dye leakage) [5]	Volume of urine ([6]; 1 g/kg p.o., 1 hour, control 2)	Volume of urine [6, 7]	Volume of urine [6, 8]	Volume of urine [6, 9]	Volume of urine [6, 10]	Level of 6-keto PGF1α in blood ([6]; 1 g/kg p.o., 6 hours)	Volume of urine [6, 11]	Volume of urine ([6]; 5 g/kg p.o., 1 hour, control 2)	Volume of urine [6, 12]	Volume of urine [6, 13]	Volume of urine [6, 14]	Volume of urine [6, 15]	Volume of urine [6, 16]	other results
C[C@@H]1OC(Nc2ccc(C(=O)O)cc2)[C@H](O)[C@H](O)[C@H]1O (stereo partly drawn) [Specimen No. 8, Sodium p-aminobenzoate-N--L-rhamnoside]	0.72 g	4.03 ng/g	0 mmHg	-15 mmHg	0.18 ± 0.04 ng/mg wet tissue	110.1 ± 5.5 mg/100 ml	0.162	5%	39%	47%	50%	65%	3.2 ng/mL	68%	5%	43%	60%	70%	77%	93%	Level of 6-keto PGF1α in blood ([6]; 5 g/kg p.o., 6 hours): 3.7 ng/mL
O=C(O)c1ccc(NC2OC[C@@H](O)[C@H](O)[C@H]2O)cc1 (stereo partly drawn) [Specimen No. 7, Sodium p-aminobenzoate-N--D-xyloside]	0.75 g	3.98 ng/g	0 mmHg	-20 mmHg	0.22 ± 0.02 ng/mg wet tissue	165.0 ± 11.0 mg/100 ml	0.152	4%	38%	45%	48%	63%	3.5 ng/mL	72%	5%	50%	66%	80%	92%	100%	
O=C(O)c1ccc(NC2O[C@H](CO)[C@@H](O)[C@H](O)[C@@H]2O)cc1 (stereo partly drawn) [Specimen No. 4, Sodium p-aminobenzoate-N--D-mannoside]	0.56 g	4.19 ng/g	-5 mmHg	-20 mmHg	0.19 ± 0.04 ng/mg wet tissue	133.6 ± 8.3 mg/100 ml	0.155	6%	40%	46%	50%	60%	3.3 ng/mL	63%	7%	40%	50%	52%	78%	91%	Level of 6-keto PGF1α in blood ([6]; 5 g/kg p.o., 6 hours): 3.5 ng/mL
